Results on 62 compounds are retold here after PubChem BioAssay AID2305 (GlaxoSmithKline (GSK), 2010).

For the assay, the system named is P. falciparum 3D7 growth, pLDH absorbance. Briefly: P. falciparum 3D7 growth inhibition, dose response, strain 3D7 (AID 2305).

Usually IC50 stands for the midpoint of a concentration-inhibition curve. For the compound `Nc1nc(N)c2cc3ccc(OCc4ccccc4)cc3nc2n1`, the IC50 amounted to 320 nM.

The compound `CCN(CCN(C)C)Cc1ccc(-c2ccc(NS(=O)(=O)c3cccc4cccnc34)cc2)cc1` displayed an IC50 of 930 nM.

Turning to `Cc1cnc(C(=O)Nc2cccc(-c3ccc(-c4nc5ccc(C(F)(F)F)cc5[nH]4)s3)c2)cn1`, the IC50 was determined as 700 nM.

In the case of `COc1ccc(CNC2Cc3ccccc3C2)cc1-c1ccc(S(=O)(=O)NCc2cccnc2)s1`, the concentration for half-maximal inhibition (IC50) worked out at 1110 nM.

In the case of `CC(C)Sc1nc2c(c(=O)n1CCc1ccccc1)C1(CCCCC1)Cc1ccccc1-2`, the concentration for half-maximal inhibition (IC50) stood at 1870 nM.

In turn, `CCCCNCCOc1ccc(-c2nc(-c3ccccc3)c(-c3ccccc3)[nH]2)cc1` displayed a concentration for half-maximal inhibition (IC50) of 680 nM.

On to `COc1ccccc1-c1cccc(CNC2CCN(CC3Cn4c(=O)ccc5ccc(F)c3c54)CC2)c1` (configuration not stated), for which the half-inhibitory concentration (IC50) came to 1380 nM.

In the case of `COc1cc(NCCCNC(=O)c2cc3c(Cl)cc(Cl)cc3[nH]2)nc2ccccc12`, the IC50 came out at 140 nM.

Consider `CNC(=O)c1cnc(Nc2ccc(N3CCN(C)CC3)c(C)c2)nc1NC`, for which the IC50 stood at 870 nM. Against the preceding compound, the IC50 is about 6.2-fold higher.

In the case of `COc1ccc2nccc([C@@H](O)CN3CCC(NC(=O)/C=C/c4cc(F)cc(Br)c4)CC3)c2c1`, the half-maximal inhibitory concentration (IC50) is 170 nM.

`CC(=O)N(C)C1CCN(Cc2ccc(-c3cccc(-c4nc5ccc(F)cc5[nH]4)c3)cc2)C1` (configuration not stated) yielded an IC50 of 600 nM.

For the compound `CCn1c(C)c(C)c2cc(C(=O)Nc3ccon3)ccc21`, the concentration for half-maximal inhibition (IC50) was 730 nM.

`COc1cccc(CNC(=O)c2ccnc(-c3ccc(CNCCOc4ccccc4)cc3)c2)c1`: the IC50 is 1200 nM.

`CC(CN(C)C)C(=O)Nc1cccc(-c2ccc(-c3nc4ccc(F)cc4[nH]3)cc2)c1` (configuration not stated) gave an IC50 of 650 nM.

Turning to `O=C(/C=C/c1ccc(Cl)c(Cl)c1)NCCCCCN1CCC(NC(=O)Nc2cc(Cl)ccc2Cl)CC1`, the IC50 stood at 430 nM.

`COc1ccc2nccc([C@@H](O)CN3CCC(NCc4cc5ccccc5nn4)CC3)c2c1`: the IC50 came out at 1200 nM.

For the compound `COc1ccc(CNC(=O)c2cnc3c(O)cccc3c2Nc2cccc(NC(=O)c3ccc(Cl)c([N+](=O)[O-])c3)c2)cc1`, the IC50 came out at 950 nM.

Regarding `CCC1CCc2cc(N)cc(-c3nc4c(c(C)nn4CC)c(=O)[nH]3)c2O1` (configuration not stated), the IC50 came out at 1120 nM.

Regarding `Cc1[nH]nc2ccc(-c3cc(OC[C@@H](N)Cc4ccccc4)cnc3-c3ccccc3OCc3cccc(F)c3)cc12`, the IC50 was determined as 1220 nM.

Turning to `OCCN1CCN(Cc2ccc(-c3cccc(-c4nc5ccccc5[nH]4)c3)cc2)CC1`, the half-inhibitory concentration (IC50) is 750 nM.

For `N=C(N)c1ccc(Nc2nc(Nc3ccc(-c4ccccc4)cc3)ncc2[N+](=O)[O-])cc1`, the half-inhibitory concentration (IC50) was determined as 800 nM. The IC50 values of the last two compounds are within 1.5-fold of each other.

With `FC(F)(F)c1ccc(-c2ccc(CNC3CCN(CCN4CCOCC4)CC3)cc2)cc1`, the IC50 amounted to 760 nM. The IC50 values of the last two compounds are within 1.5-fold of each other.

As for `O=C(NCCCCN1CCC(c2ccc3c(c2OCCO)CCCC3)CC1)c1ccc(-c2ccc(C(F)(F)F)cc2)cc1`, the IC50 worked out at 860 nM.

In the case of `CCN(CC)CCN(Cc1ccc(-c2ccc(C(F)(F)F)cc2)cc1)C(=O)Cn1c(CCc2ccc(F)cc2)nc(=O)c2ccccc21`, the concentration for half-maximal inhibition (IC50) was found to be 1070 nM.

As for `COc1ccc2ncc(F)c(CCN3CC[C@H](NC(=O)c4ccc5c(n4)NC(=O)CS5)[C@H](O)C3)c2n1`, the IC50 worked out at 950 nM.

As to `Cc1cc(NCc2ccccc2)nc(NCc2ccccc2)n1`, the IC50 is 970 nM.

As to `CCCCN(C)CC#Cc1ccc(-c2ccc3[nH]c(C)c(Br)c(=O)c3c2)cn1`, the IC50 is 650 nM.

Turning to `CC1CN(Cc2ccc(C#N)cc2)CCN1c1ccc(NC(=O)c2cccs2)cc1` (configuration not stated), the IC50 was determined as 810 nM.

Take `CCn1c(CN2CCN(Cc3ccccc3)CC2)nc2cc(NC(=O)c3cccs3)ccc21`: the IC50 amounted to 400 nM.

On to `OC(CNCCCc1ccccc1)c1cc(OCc2ccccc2)cc(OCc2ccccc2)c1` (configuration not stated), for which the concentration for half-maximal inhibition (IC50) worked out at 850 nM. Compared with the last compound, the IC50 is about 2.1-fold higher.

Regarding `CCOc1cc(C=Cc2nc3ccccc3c(=O)[nH]2)cc(Cl)c1O`, the 50% inhibitory concentration (IC50) was found to be 1180 nM.

Take `O=C(Nc1cn(-c2ccc(OCc3cccc(F)c3)c(Cl)c2)c2ncncc12)c1ccncc1`: the IC50 is 170 nM.

With `C#CCCC(=O)Nc1cccc(-c2cccc(-c3nc4c(C)cccc4[nH]3)c2)c1`, the IC50 came to 740 nM.

As for `CCC(CC)C(CC(=O)NC(C)(C)CCc1ccccc1OC)Nc1ccc(C#N)c2ccccc12` (configuration not stated), the IC50 was determined as 800 nM. This IC50 and that of the compound before are within 1.5-fold of each other.

The compound `O=c1c2ccccc2[nH]c2cc(Cl)ccc12` had an IC50 of 870 nM. This IC50 and that of the compound before are within 1.5-fold of each other.

`Cc1nc(N)nc(N)c1CCCOc1ccccc1Cl` registered an IC50 of 220 nM.

For the compound `CC(C)C[C@H](NC(=O)c1ccc(OCCN2CCOCC2)cc1)C(=O)N[C@H](/C=N/NC(=O)OC(C)(C)C)CCc1ccccc1`, the IC50 worked out at 160 nM.

As to `O=C(Nc1cccc(-c2ccc(-c3nc4ccc(C(F)(F)F)cc4[nH]3)cc2)c1)c1ccoc1`, the IC50 came out at 710 nM.

The compound `Cc1c(NC(=O)COc2ccc(Cl)cc2C(=O)c2cc(F)cc(C(F)(F)F)c2)ccc2ncsc12` registered a half-maximal inhibitory concentration (IC50) of 1020 nM.

Compound `CCc1cn2c3c(cc(C(=O)N[C@@H](Cc4cc(F)cc(F)c4)[C@H](O)CNC4CCCCC4)cc13)N(C)S(=O)(=O)CC2` came in with an IC50 of 30 nM.

`CN1CCN(c2cc3c(Nc4ccc5c(cnn5Cc5ccccc5)c4)ncnc3cn2)CC1`: the 50% inhibitory concentration (IC50) worked out at 1130 nM.

Compound `NS(=O)(=O)c1cccc(Br)c1` had an IC50 of 890 nM.

In turn, `O=S(=O)(Nc1cccc(F)c1CNCc1ccccn1)c1ccc(Cl)c(Cl)c1` gave a 50% inhibitory concentration (IC50) of 890 nM. That is a sub-micromolar value.

Turning to `COc1ccc(S(=O)(=O)NCCCC2CCN(CCCCCNC(=O)C=Cc3ccc(Cl)c(Cl)c3)CC2)cc1`, the IC50 was 1040 nM. The IC50 values of the last two compounds are within 1.5-fold of each other.

`O=C(Nc1cccc(CN2CCN(C(=O)c3ccccc3)CC2)c1)c1cccs1` returned a 50% inhibitory concentration (IC50) of 310 nM.

Turning to `O=S(=O)(Nc1cccc(CCN2CCC(N3CCCCC3)CC2)c1)c1ccc(Cl)cc1`, the concentration for half-maximal inhibition (IC50) is 920 nM. This IC50 lies about 3-fold higher than the previous one.

`CS(=O)(=O)c1ccc(OCCCN(Cc2ccccc2C(F)(F)F)c2ccc(C#N)c(C(F)(F)F)c2)cc1` showed a concentration for half-maximal inhibition (IC50) of 1020 nM.

Take `CCCc1cc(N2CCC(N3CCCC3)CC2)nc(Nc2ccc(OC)cc2)n1`: the half-maximal inhibitory concentration (IC50) stood at 810 nM.

Consider `COc1ccccc1CCNc1nc(C)cc(N[C@@H](Cc2ccccc2)C(=O)Nc2ccccc2)n1`, for which the IC50 amounted to 1020 nM.

Consider `Cc1ccc2c(NN=Cc3cccc(Cl)c3)cc(C)nc2c1`, for which the IC50 was 950 nM.

In the case of `Cc1[nH]c(C)c(-c2ccc(OCCn3cnc(Cl)c3Cl)cc2)c(=O)c1Br`, the IC50 is 850 nM. The IC50 values of the last two compounds are within 1.5-fold of each other.

Take `CCc1ccc(CN2CCC(CNC(=O)c3cc(-c4cccc(Cl)c4)cs3)C2)cc1` (configuration not stated): the IC50 turned out to be 1110 nM.

For `CCOc1ccc(Cc2c(C)nc3nc(N)nc(N)c3c2C)cc1`, the IC50 came out at 1060 nM. The IC50 values of the last two compounds are within 1.5-fold of each other.

In turn, `N#Cc1ccc(-c2ccc(C(=O)NCCCCN3CCC(c4cc(Br)c5c(c4O)CCCC5)CC3)cc2)cc1` came in with an IC50 of 150 nM.

`Cc1nc(-c2nc(NCc3ccncc3)ncc2-c2ccsc2)sc1C` came in with a half-inhibitory concentration (IC50) of 990 nM. Compared with the last compound, the IC50 is about 6.6-fold higher.

Consider `CCN(CC)CCCC(C)Nc1ccnc2ccc(-c3ccccc3)cc12` (configuration not stated), for which the IC50 came to 650 nM. This IC50 is about 1.5-fold lower than that of the compound before.

With `COc1ccccc1-n1c(-c2ccc3ccccc3c2)csc1=NC(=O)c1ccccc1`, the half-inhibitory concentration (IC50) was 200 nM.

As to `CS(=O)(=O)c1ccc(CCNCc2ccc(-c3ccc(CN(C(=O)c4cccc(C#N)c4)C4CCN(Cc5ccccc5)CC4)cc3)nc2)cc1`, the IC50 is 980 nM. This IC50 lies about 4.9-fold higher than the previous one.

Take `CCCN(CCC)CCCNc1ccc(C(=O)Nc2ccc(C)c(F)c2)cc1[N+](=O)[O-]`: the IC50 came out at 540 nM.

The compound `COc1cc2nccc(Nc3ccc(OCc4ccc(NC(C)=O)cc4)cc3)c2cc1OC` came in with an IC50 of 550 nM.

For the compound `COc1ccc(CNc2nccc3ccc(-c4ccc5nccn5c4)cc23)cc1`, the concentration for half-maximal inhibition (IC50) is 880 nM.

As for `Cc1nc2ccccc2n1C1C[C@H]2CC[C@@H](C1)N2CCCC1(c2ccccc2)CCN(C(=O)OCc2ccccc2)CC1` (some centres not stated), the IC50 worked out at 1000 nM. The IC50 values of the last two compounds are within 1.5-fold of each other.
